Measurements reported in PubChem BioAssay (NCI).
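Grown in 96-well plates, cells were treated for 48 hours with each compound at five concentrations. Insufficient inhibition: endpoint recorded as highest concentration tested. TGI: concentration producing complete growth inhibition.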

Assays:
Experiment in all cases: growth of human tumour cells (NCI), 48 h
T-47D breast = system: T-47D breast
HCC-2998 colon = system: HCC-2998 colon
SF-268 CNS = system: SF-268 CNS
K-562 leukemia = system: K-562 leukemia
HOP-62 NSCLC = system: HOP-62 NSCLC
A498 renal = system: A498 renal
SK-MEL-5 melanoma = system: SK-MEL-5 melanoma
A549 NSCLC = system: A549 NSCLC
NCI/ADR-RES ovarian = system: NCI/ADR-RES ovarian
RXF 393 renal = system: RXF 393 renal
SN12C renal = system: SN12C renal
MCF7 breast = system: MCF7 breast
HS 578T breast = system: HS 578T breast
NCI-H522 lung = system: NCI-H522 lung
OVCAR-5 ovarian = system: OVCAR-5 ovarian
SK-OV-3 ovarian = system: SK-OV-3 ovarian
NCI-H460 lung = system: NCI-H460 lung
HCT-15 colon = system: HCT-15 colon
MDA-MB-435 = system: MDA-MB-435
TK-10 renal = system: TK-10 renal
OVCAR-8 ovarian = system: OVCAR-8 ovarian
SK-MEL-28 melanoma = system: SK-MEL-28 melanoma
COLO 205 colon = system: COLO 205 colon
MDA-MB-231 breast = system: MDA-MB-231 breast
MALME-3M melanoma = system: MALME-3M melanoma
NCI-H226 lung = system: NCI-H226 lung
SW-620 colon = system: SW-620 colon
786-0 renal = system: 786-0 renal
SK-MEL-2 melanoma = system: SK-MEL-2 melanoma
ACHN renal = system: ACHN renal
MOLT-4 leukemia = system: MOLT-4 leukemia
U251 CNS = system: U251 CNS
HCT-116 colon = system: HCT-116 colon
HL-60(TB) leukemia = system: HL-60(TB) leukemia
SF-539 CNS = system: SF-539 CNS
UO-31 renal = system: UO-31 renal
EKVX NSCLC = system: EKVX NSCLC
HOP-92 NSCLC = system: HOP-92 NSCLC
OVCAR-4 ovarian = system: OVCAR-4 ovarian
SNB-75 CNS = system: SNB-75 CNS
HT29 colon = system: HT29 colon
SNB-19 CNS = system: SNB-19 CNS
NCI-H23 lung = system: NCI-H23 lung
LOX IMVI melanoma = system: LOX IMVI melanoma
PC-3 prostate = system: PC-3 prostate
UACC-257 melanoma = system: UACC-257 melanoma
UACC-62 melanoma = system: UACC-62 melanoma
M14 melanoma = system: M14 melanoma
BT-549 breast = system: BT-549 breast
DU-145 prostate = system: DU-145 prostate
CCRF-CEM leukemia = system: CCRF-CEM leukemia
RPMI-8226 leukemia = system: RPMI-8226 leukemia
CAKI-1 renal = system: CAKI-1 renal
OVCAR-3 ovarian = system: OVCAR-3 ovarian
KM12 colon = system: KM12 colon
IGROV1 ovarian = system: IGROV1 ovarian
SF-295 CNS = system: SF-295 CNS

## CCCCC(CCCC)=NNC(=S)SC
T-47D breast
  TGI: 74.1 µM
HCC-2998 colon
  TGI: 54.4 µM
SF-268 CNS
  TGI: > 100 µM
K-562 leukemia
  TGI: > 100 µM
HOP-62 NSCLC
  TGI: > 100 µM
A498 renal
  TGI: > 100 µM
SK-MEL-5 melanoma
  TGI: 39.3 µM
A549 NSCLC
  TGI: > 100 µM
NCI/ADR-RES ovarian
  TGI: > 100 µM
RXF 393 renal
  TGI: > 100 µM
SN12C renal
  TGI: > 100 µM
MCF7 breast
  TGI: > 100 µM
HS 578T breast
  TGI: > 100 µM
NCI-H522 lung
  TGI: 48.8 µM
OVCAR-5 ovarian
  TGI: > 100 µM
SK-OV-3 ovarian
  TGI: > 100 µM
NCI-H460 lung
  TGI: > 100 µM
HCT-15 colon
  TGI: > 100 µM
MDA-MB-435
  TGI: 47 µM
TK-10 renal
  TGI: 69.1 µM
OVCAR-8 ovarian
  TGI: 44.4 µM
SK-MEL-28 melanoma
  TGI: > 100 µM
COLO 205 colon
  TGI: > 100 µM
MDA-MB-231 breast
  TGI: > 100 µM
MALME-3M melanoma
  TGI: 37.4 µM
NCI-H226 lung
  TGI: 57.6 µM
SW-620 colon
  TGI: > 100 µM
786-0 renal
  TGI: > 100 µM
SK-MEL-2 melanoma
  TGI: > 100 µM
ACHN renal
  TGI: > 100 µM
MOLT-4 leukemia
  TGI: 43.6 µM
U251 CNS
  TGI: > 100 µM
HCT-116 colon
  TGI: 38.6 µM
HL-60(TB) leukemia
  TGI: 50.2 µM
SF-539 CNS
  TGI: 67 µM
UO-31 renal
  TGI: > 100 µM
EKVX NSCLC
  TGI: > 100 µM
HOP-92 NSCLC
  TGI: > 100 µM
OVCAR-4 ovarian
  TGI: 66.3 µM
SNB-75 CNS
  TGI: > 100 µM
HT29 colon
  TGI: > 100 µM
SNB-19 CNS
  TGI: > 100 µM
NCI-H23 lung
  TGI: > 100 µM
LOX IMVI melanoma
  TGI: > 100 µM
PC-3 prostate
  TGI: > 100 µM
UACC-257 melanoma
  TGI: 75.7 µM
UACC-62 melanoma
  TGI: 57.8 µM
M14 melanoma
  TGI: 44.3 µM
BT-549 breast
  TGI: > 100 µM
DU-145 prostate
  TGI: > 100 µM

## CCOc1c(OC)cc(C2c3cc4c(c(OCC)c3CC3COC(=O)C32)OCO4)cc1OC (stereo not given)
CCRF-CEM leukemia
  TGI: 30.1 µM
T-47D breast
  TGI: > 100 µM
SF-268 CNS
  TGI: 92.6 µM
K-562 leukemia
  TGI: 19.4 µM
RPMI-8226 leukemia
  TGI: 59.3 µM
HOP-62 NSCLC
  TGI: 17.8 µM
A498 renal
  TGI: 67.4 µM
SK-MEL-5 melanoma
  TGI: 14.5 µM
CAKI-1 renal
  TGI: 55.7 µM
A549 NSCLC
  TGI: 14.2 µM
NCI/ADR-RES ovarian
  TGI: 7.17 µM
RXF 393 renal
  TGI: > 100 µM
SN12C renal
  TGI: 6.9 µM
MCF7 breast
  TGI: > 100 µM
HS 578T breast
  TGI: 21.9 µM
NCI-H522 lung
  TGI: 16.8 µM
OVCAR-5 ovarian
  TGI: 15.9 µM
SK-OV-3 ovarian
  TGI: > 100 µM
NCI-H460 lung
  TGI: > 100 µM
HCT-15 colon
  TGI: 2.68 µM
MDA-MB-435
  TGI: 0.898 µM
TK-10 renal
  TGI: 69.6 µM
OVCAR-8 ovarian
  TGI: 6.38 µM
SK-MEL-28 melanoma
  TGI: > 100 µM
COLO 205 colon
  TGI: 6.98 µM
MDA-MB-231 breast
  TGI: 6.47 µM
OVCAR-3 ovarian
  TGI: 5.14 µM
MALME-3M melanoma
  TGI: 79.8 µM
NCI-H226 lung
  TGI: 46.9 µM
SW-620 colon
  TGI: > 100 µM
786-0 renal
  TGI: 22.2 µM
SK-MEL-2 melanoma
  TGI: > 100 µM
ACHN renal
  TGI: 20.9 µM
MOLT-4 leukemia
  TGI: 7.69 µM
U251 CNS
  TGI: 11.6 µM
HCT-116 colon
  TGI: 11.5 µM
KM12 colon
  TGI: 11.3 µM
SF-539 CNS
  TGI: 4.91 µM
UO-31 renal
  TGI: 27.3 µM
EKVX NSCLC
  TGI: > 100 µM
HOP-92 NSCLC
  TGI: > 100 µM
OVCAR-4 ovarian
  TGI: > 100 µM
SNB-75 CNS
  TGI: > 100 µM
HT29 colon
  TGI: 10.4 µM
SNB-19 CNS
  TGI: > 100 µM
NCI-H23 lung
  TGI: 5.9 µM
LOX IMVI melanoma
  TGI: 14 µM
PC-3 prostate
  TGI: > 100 µM
UACC-257 melanoma
  TGI: 49.1 µM
IGROV1 ovarian
  TGI: 80.5 µM
SF-295 CNS
  TGI: 3.97 µM
UACC-62 melanoma
  TGI: 2.27 µM
M14 melanoma
  TGI: 43.3 µM
BT-549 breast
  TGI: 64 µM
DU-145 prostate
  TGI: 12.1 µM
